US20080051387A1, “TETRAHYDROPYRIDO[3,4-D]PYRIMIDINES AND RELATED ANALOGUES” (priority 2006, published 2008)

Target: T1, chimeric human H3 receptor (Homo sapiens, UniProt Q9Y5N1)
T1 construct: rat Galpha-i2 (Gnai2, rat); made in house; host or cells: Sf9 insect cells (baculovirus); P2 membranes
Assay: Chimeric human H3 receptor screening GTP binding assay (inhibition of histamine-stimulated GTP-gamma35S binding, Example 8)
Assay type: biochemical
Conditions: 1 h; assay of Example 8; symbol "!" in column headed Ki; read-out: percent inhibition of agonist-induced GTP-gammaS binding to H3
How it was run: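 Compound tested at 4 μM against 1 μM histamine stimulation; 125 pM GTP-gamma35S binding measured by filtration and scintillation after 60 min at room temperature. Membranes from Sf9 cells expressing chimeric human H3 plus G-protein subunits, in Tris pH 7.4/NaCl/MgCl2/GDP buffer; values are % inhibition after nonspecific subtraction.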

T1 sequence (Q9Y5N1 with tags, fused parts or gaps): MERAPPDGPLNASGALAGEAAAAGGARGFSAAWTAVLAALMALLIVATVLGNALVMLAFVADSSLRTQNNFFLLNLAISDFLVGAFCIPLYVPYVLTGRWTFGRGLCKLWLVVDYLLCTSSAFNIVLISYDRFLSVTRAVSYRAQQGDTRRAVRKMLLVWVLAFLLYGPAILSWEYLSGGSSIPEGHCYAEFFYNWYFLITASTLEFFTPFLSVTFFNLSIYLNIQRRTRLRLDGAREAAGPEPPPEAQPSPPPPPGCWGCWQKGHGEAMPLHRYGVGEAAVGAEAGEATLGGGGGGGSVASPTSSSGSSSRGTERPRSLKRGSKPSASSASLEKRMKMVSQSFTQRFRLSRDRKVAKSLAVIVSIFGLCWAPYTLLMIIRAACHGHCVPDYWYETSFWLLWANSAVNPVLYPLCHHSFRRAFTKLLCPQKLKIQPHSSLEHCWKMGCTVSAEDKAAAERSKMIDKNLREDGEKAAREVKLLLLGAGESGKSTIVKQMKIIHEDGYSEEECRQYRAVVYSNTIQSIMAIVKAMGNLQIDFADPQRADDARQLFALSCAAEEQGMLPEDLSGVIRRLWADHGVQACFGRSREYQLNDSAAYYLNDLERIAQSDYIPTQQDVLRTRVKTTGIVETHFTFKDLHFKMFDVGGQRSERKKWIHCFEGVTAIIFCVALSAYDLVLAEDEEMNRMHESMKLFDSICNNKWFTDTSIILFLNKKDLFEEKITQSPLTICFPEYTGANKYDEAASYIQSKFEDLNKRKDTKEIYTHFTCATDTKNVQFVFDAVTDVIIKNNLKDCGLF

Question: How did the inhibition at 4 µM turn out when `c1nc(N2CCN(C3CCC3)CC2)nc2c1CCN(CC1CCOCC1)CC2` [Compound 272, 2-(4-cyclobutylpiperazin-1-yl)-7-(tetrahydro-2H-pyran-4-ylmethyl)-6,7,8,9-tetrahydro-5H-pyrimido[4,5-d]azepine] was run?
Answer: ≥ 90%

Question: For `COc1cccc(CC(=O)N2CCc3cnc(N4CCN(C5CCC5)CC4)nc3CC2)c1` [Compound 273, 2-(4-cyclobutylpiperazin-1-yl)-7-[(3-methoxyphenyl)acetyl]-6,7,8,9-tetrahydro-5H-pyrimido[4,5-d]azepine], which inhibition at 4 µM is on record?
Answer: ≥ 90%

Question: How did the inhibition at 4 µM turn out when `COc1ccc(CC(=O)N2CCc3cnc(N4CCN(C5CCC5)CC4)nc3CC2)cc1` [Compound 274, 2-(4-cyclobutylpiperazin-1-yl)-7-[(4-methoxyphenyl)acetyl]-6,7,8,9-tetrahydro-5H-pyrimido[4,5-d]azepine] was run?
Answer: ≥ 90%

Question: Which inhibition at 4 µM does the source give for `CCOc1ccc(CC(=O)N2CCc3cnc(N4CCN(C5CCC5)CC4)nc3CC2)cc1OC` [Compound 275, 2-(4-cyclobutylpiperazin-1-yl)-7-[(4-ethoxy-3-methoxyphenyl)acetyl]-6,7,8,9-tetrahydro-5H-pyrimido[4,5-d]azepine] here?
Answer: ≥ 90%

Question: `COc1cc(CC(=O)N2CCc3cnc(N4CCN(C5CCC5)CC4)nc3CC2)cc(OC)c1OC` [Compound 276, 2-(4-cyclobutylpiperazin-1-yl)-7-[(3,4,5-trimethoxyphenyl)acetyl]-6,7,8,9-tetrahydro-5H-pyrimido[4,5-d]azepine] was tested. Which inhibition at 4 µM did it give?
Answer: ≥ 90%

Question: Which inhibition at 4 µM does the source give for `O=C(Cc1ccc2c(c1)OCO2)N1CCc2cnc(N3CCN(C4CCC4)CC3)nc2CC1` [Compound 277, 7-(1,3-benzodioxol-5-ylacetyl)-2-(4-cyclobutylpiperazin-1-yl)-6,7,8,9-tetrahydro-5H-pyrimido[4,5-d]azepine] here?
Answer: ≥ 90%

Question: With `O=C(Cc1ccc(OC(F)(F)F)cc1)N1CCc2cnc(N3CCN(C4CCC4)CC3)nc2CC1` [Compound 278, 2-(4-cyclobutylpiperazin-1-yl)-7-{[4-(trifluoromethoxy)phenyl]acetyl}-6,7,8,9-tetrahydro-5H-pyrimido[4,5-d]azepine] as the molecule, how does the inhibition at 4 µM read?
Answer: ≥ 90%

Question: For `O=C(Cc1cccc(OC(F)(F)F)c1)N1CCc2cnc(N3CCN(C4CCC4)CC3)nc2CC1` [Compound 279, 2-(4-cyclobutylpiperazin-1-yl)-7-{[3-(trifluoromethoxy)phenyl]acetyl}-6,7,8,9-tetrahydro-5H-pyrimido[4,5-d]azepine], which inhibition at 4 µM is on record?
Answer: ≥ 90%

Question: With `COc1cc(CC(=O)N2CCc3cnc(N4CCN(C5CCC5)CC4)nc3CC2)cc(OC)c1` [Compound 280, 2-(4-cyclobutylpiperazin-1-yl)-7-[(3,5-dimethoxyphenyl)acetyl]-6,7,8,9-tetrahydro-5H-pyrimido[4,5-d]azepine] as the molecule, how does the inhibition at 4 µM read?
Answer: ≥ 90%

Question: With `COc1ccc(CC(=O)N2CCc3cnc(N4CCN(C5CCC5)CC4)nc3CC2)cc1OC` [Compound 281, 2-(4-cyclobutylpiperazin-1-yl)-7-[(3,4-dimethoxyphenyl)acetyl]-6,7,8,9-tetrahydro-5H-pyrimido[4,5-d]azepine] as the molecule, how does the inhibition at 4 µM read?
Answer: ≥ 90%

Question: How did the inhibition at 4 µM turn out when `O=C(Cc1cccc(Oc2ccccc2)c1)N1CCc2cnc(N3CCN(C4CCC4)CC3)nc2CC1` [Compound 282, 2-(4-cyclobutylpiperazin-1-yl)-7-[(3-phenoxyphenyl)acetyl]-6,7,8,9-tetrahydro-5H-pyrimido[4,5-d]azepine] was run?
Answer: ≥ 90%

Question: How did the inhibition at 4 µM turn out when `O=C(Cc1ccc(Oc2ccccc2)cc1)N1CCc2cnc(N3CCN(C4CCC4)CC3)nc2CC1` [Compound 283, 2-(4-cyclobutylpiperazin-1-yl)-7-[(4-phenoxyphenyl)acetyl]-6,7,8,9-tetrahydro-5H-pyrimido[4,5-d]azepine] was run?
Answer: ≥ 90%

Question: `O=C(Cc1cccc(Cl)c1)N1CCc2cnc(N3CCN(C4CCC4)CC3)nc2CC1` [Compound 284, 7-[(3-chlorophenyl)acetyl]-2-(4-cyclobutylpiperazin-1-yl)-6,7,8,9-tetrahydro-5H-pyrimido[4,5-d]azepine] was tested. Which inhibition at 4 µM did it give?
Answer: ≥ 90%

Question: With `O=C(Cc1ccc(Cl)cc1)N1CCc2cnc(N3CCN(C4CCC4)CC3)nc2CC1` [Compound 285, 7-[(4-chlorophenyl)acetyl]-2-(4-cyclobutylpiperazin-1-yl)-6,7,8,9-tetrahydro-5H-pyrimido[4,5-d]azepine] as the molecule, how does the inhibition at 4 µM read?
Answer: ≥ 90%

Question: Which inhibition at 4 µM does the source give for `O=C(Cc1ccc(F)cc1F)N1CCc2cnc(N3CCN(C4CCC4)CC3)nc2CC1` [Compound 286, 2-(4-cyclobutylpiperazin-1-yl)-7-[(2,4-difluorophenyl)acetyl]-6,7,8,9-tetrahydro-5H-pyrimido[4,5-d]azepine] here?
Answer: ≥ 90%

Question: For `O=C(Cc1ccc(C(F)(F)F)cc1)N1CCc2cnc(N3CCN(C4CCC4)CC3)nc2CC1` [Compound 287, 2-(4-cyclobutylpiperazin-1-yl)-7-{[4-(trifluoromethyl)phenyl]acetyl}-6,7,8,9-tetrahydro-5H-pyrimido[4,5-d]azepine], which inhibition at 4 µM is on record?
Answer: ≥ 90%

Question: With `O=C(Cc1cccc(C(F)(F)F)c1)N1CCc2cnc(N3CCN(C4CCC4)CC3)nc2CC1` [Compound 288, 2-(4-cyclobutylpiperazin-1-yl)-7-{[3-(trifluoromethyl)phenyl]acetyl}-6,7,8,9-tetrahydro-5H-pyrimido[4,5-d]azepine] as the molecule, how does the inhibition at 4 µM read?
Answer: ≥ 90%

Question: `O=C(Cc1cccc(Br)c1)N1CCc2cnc(N3CCN(C4CCC4)CC3)nc2CC1` [Compound 289, 7-[(3-bromophenyl)acetyl]-2-(4-cyclobutylpiperazin-1-yl)-6,7,8,9-tetrahydro-5H-pyrimido[4,5-d]azepine] was tested. Which inhibition at 4 µM did it give?
Answer: ≥ 90%

Question: For `O=C(Cc1ccc(Br)cc1)N1CCc2cnc(N3CCN(C4CCC4)CC3)nc2CC1` [Compound 290, 7-[(4-bromophenyl)acetyl]-2-(4-cyclobutylpiperazin-1-yl)-6,7,8,9-tetrahydro-5H-pyrimido[4,5-d]azepine], which inhibition at 4 µM is on record?
Answer: ≥ 90%

Question: Which inhibition at 4 µM does the source give for `O=C(Cc1c(F)cccc1F)N1CCc2cnc(N3CCN(C4CCC4)CC3)nc2CC1` [Compound 291, 2-(4-cyclobutylpiperazin-1-yl)-7-[(2,6-difluorophenyl)acetyl]-6,7,8,9-tetrahydro-5H-pyrimido[4,5-d]azepine] here?
Answer: ≥ 90%

Question: `O=C(Cc1cccc(C(F)(F)F)c1F)N1CCc2cnc(N3CCN(C4CCC4)CC3)nc2CC1` [Compound 292, 2-(4-cyclobutylpiperazin-1-yl)-7-{[2-fluoro-3-(trifluoromethyl)phenyl]acetyl}-6,7,8,9-tetrahydro-5H-pyrimido[4,5-d]azepine] was tested. Which inhibition at 4 µM did it give?
Answer: ≥ 90%

Question: How did the inhibition at 4 µM turn out when `O=C(Cc1ccc(Cl)c(Cl)c1)N1CCc2cnc(N3CCN(C4CCC4)CC3)nc2CC1` [Compound 293, 2-(4-cyclobutylpiperazin-1-yl)-7-[(3,4-dichlorophenyl)acetyl]-6,7,8,9-tetrahydro-5H-pyrimido[4,5-d]azepine] was run?
Answer: ≥ 90%

Question: With `O=C(Cc1ccccc1Cl)N1CCc2cnc(N3CCN(C4CCC4)CC3)nc2CC1` [Compound 294, 7-[(2-chlorophenyl)acetyl]-2-(4-cyclobutylpiperazin-1-yl)-6,7,8,9-tetrahydro-5H-pyrimido[4,5-d]azepine] as the molecule, how does the inhibition at 4 µM read?
Answer: ≥ 90%

Question: `O=C(Cc1ccccc1C(F)(F)F)N1CCc2cnc(N3CCN(C4CCC4)CC3)nc2CC1` [Compound 295, 2-(4-cyclobutylpiperazin-1-yl)-7-{[2-(trifluoromethyl)phenyl]acetyl}-6,7,8,9-tetrahydro-5H-pyrimido[4,5-d]azepine] was tested. Which inhibition at 4 µM did it give?
Answer: ≥ 90%

Question: `O=C(Cc1ccc(Cl)cc1Cl)N1CCc2cnc(N3CCN(C4CCC4)CC3)nc2CC1` [Compound 296, 2-(4-cyclobutylpiperazin-1-yl)-7-[(2,4-dichlorophenyl)acetyl]-6,7,8,9-tetrahydro-5H-pyrimido[4,5-d]azepine] was tested. Which inhibition at 4 µM did it give?
Answer: ≥ 90%

Question: How did the inhibition at 4 µM turn out when `O=C(Cc1ccccc1Br)N1CCc2cnc(N3CCN(C4CCC4)CC3)nc2CC1` [Compound 297, 7-[(2-bromophenyl)acetyl]-2-(4-cyclobutylpiperazin-1-yl)-6,7,8,9-tetrahydro-5H-pyrimido[4,5-d]azepine] was run?
Answer: ≥ 90%

Question: With `O=C(Cc1c(F)cccc1Cl)N1CCc2cnc(N3CCN(C4CCC4)CC3)nc2CC1` [Compound 298, 7-[(2-chloro-6-fluorophenyl)acetyl]-2-(4-cyclobutylpiperazin-1-yl)-6,7,8,9-tetrahydro-5H-pyrimido[4,5-d]azepine] as the molecule, how does the inhibition at 4 µM read?
Answer: ≥ 90%

Question: For `COc1cc(Br)c(CC(=O)N2CCc3cnc(N4CCN(C5CCC5)CC4)nc3CC2)cc1OC` [Compound 299, 7-[(2-bromo-4,5-dimethoxyphenyl)acetyl]-2-(4-cyclobutylpiperazin-1-yl)-6,7,8,9-tetrahydro-5H-pyrimido[4,5-d]azepine], which inhibition at 4 µM is on record?
Answer: ≥ 90%

Question: Which inhibition at 4 µM does the source give for `O=C(Cc1c(Cl)ccc(Cl)c1Cl)N1CCc2cnc(N3CCN(C4CCC4)CC3)nc2CC1` [Compound 300, 2-(4-cyclobutylpiperazin-1-yl)-7-[(2,3,6-trichlorophenyl)acetyl]-6,7,8,9-tetrahydro-5H-pyrimido[4,5-d]azepine] here?
Answer: ≥ 90%

Question: With `O=C(Cc1cc(Cl)ccc1Br)N1CCc2cnc(N3CCN(C4CCC4)CC3)nc2CC1` [Compound 301, 7-[(2-bromo-5-chlorophenyl)acetyl]-2-(4-cyclobutylpiperazin-1-yl)-6,7,8,9-tetrahydro-5H-pyrimido[4,5-d]azepine] as the molecule, how does the inhibition at 4 µM read?
Answer: ≥ 90%

Question: `O=C(Cc1ccc(F)cc1Cl)N1CCc2cnc(N3CCN(C4CCC4)CC3)nc2CC1` [Compound 302, 7-[(2-chloro-4-fluorophenyl)acetyl]-2-(4-cyclobutylpiperazin-1-yl)-6,7,8,9-tetrahydro-5H-pyrimido[4,5-d]azepine] was tested. Which inhibition at 4 µM did it give?
Answer: ≥ 90%

Question: How did the inhibition at 4 µM turn out when `O=C(Cc1c(Cl)cccc1Cl)N1CCc2cnc(N3CCN(C4CCC4)CC3)nc2CC1` [Compound 303, 2-(4-cyclobutylpiperazin-1-yl)-7-[(2,6-dichlorophenyl)acetyl]-6,7,8,9-tetrahydro-5H-pyrimido[4,5-d]azepine] was run?
Answer: ≥ 90%

Question: Which inhibition at 4 µM does the source give for `O=C(Cc1ccccc1Oc1ccccc1)N1CCc2cnc(N3CCN(C4CCC4)CC3)nc2CC1` [Compound 304, 2-(4-cyclobutylpiperazin-1-yl)-7-[(2-phenoxyphenyl)acetyl]-6,7,8,9-tetrahydro-5H-pyrimido[4,5-d]azepine] here?
Answer: ≥ 90%
